Calls of active or inactive are those of the source. No cut-off for these calls is given here.
How the values were obtained:
Bacillus subtilis [1] = assay: Antibacterial activity against Bacillus subtilis after 48 hrs; format: functional
Bacillus subtilis [2] = assay: Bacteriostatic activity against Bacillus subtilis up to 500 ug/ml after 48 hrs; format: functional, organism-based
Escherichia coli [3] = assay: Bactericidal activity against Escherichia coli up to 500 ug/ml after 48 hrs; format: functional, organism-based
Escherichia coli [4] = assay: Bacteriostatic activity against Escherichia coli up to 500 ug/ml after 48 hrs; format: functional, organism-based
Bacillus subtilis [5] = assay: Bactericidal activity against Bacillus subtilis up to 500 ug/ml after 48 hrs; format: functional, organism-based

SMILES | MIC (Bacillus subtilis [1]) [µg/mL] | Activity (Bacillus subtilis [2]) | Activity (Escherichia coli [3]) | Activity (Escherichia coli [4]) | Activity (Bacillus subtilis [5])
CC1(C)S[C@@H]2[C@H](NC(=O)[C@H](N)c3ccccc3)C(=O)N2[C@H]1C(=O)O [AMPICILLIN] | < 10 | – | – | – | –
CCCCC[C@@H](C)COC(=O)c1ccncc1 | – | inactive | inactive | inactive | inactive
CCCCCCCCOC(=O)c1ccncc1 | – | inactive | inactive | inactive | inactive

Source: ChEMBL document CHEMBL3632574, “Synthesis and evaluation of antibacterial activity of (R)-2-methylheptyl isonicotinate, a putative naturally occurring bioactive agent” (2015)
